Experiments:
[1] = system: hPASMC; assay: EdU cell proliferation assay, hPASMC; format: cell-based; settings: Homo sapiens, 5% FBS, N = 6, FIG. 1e, read-out: hPASMC IC50 (nM), inhibition of proliferation
Description: (§1) Alternatively, rather than using BrdU, EdU (5-ethynyl-2′-deoxyuridine) can be used. Cells were first pre-incubated with different concentrations of the CDK inhibitor for 30 minutes, and then 5% FBS was added to stimulate cell proliferation. Cells were maintained for 24 h before the proliferation rate was evaluated using EDU Click-iT EdU Alexa Fluor® 647 HCS Assay (Thermofisher Scientific, USA). EdU was added to the medium 16 h before the quantification of EdU incorporation. Proliferation was quantified by scanning the 96-well plates using automated high content imaging platform equipped with appropriate fluorescence microscopic filters for DAPI (4′,6-Diamidino-2-Phenylindole) or Hoechst stain and Cyanine5 dyes as part of the Click-iT assay. Proliferating EdU positive cells detected at Cyanine5 were quantified and normalized to total cell number per well where the total cell number per cell was identified by DAPI or Hoechst signal. The % effect was then calculated:
(§2) The average (avg) amount (amt) of proliferating cells per concentration of CDK inhibitor with FBS present.
(§3) The minimum amount of proliferation (min amt of prolif'n) is based on cell numbers in the wells where FBS is not added and no CDK inhibitor is present.
(§4) The maximum amount of proliferation (max amt of prolif'n) is based on cell numbers in the wells where FBS is added and no CDK inhibitor is present.

[2] = system: hPAAF; assay: EdU cell proliferation assay, hPAAF; format: cell-based; settings: Homo sapiens, 5% FBS, N = 6, FIG. 1f, read-out: hPAAF IC50 (nM), inhibition of proliferation
Description: as §1, §2, §3, §4

[3] = system: rPASMC; assay: EdU cell proliferation assay, rPASMC; format: cell-based; settings: Rattus norvegicus, 5% FBS, N = 6, FIG. 1g, read-out: rPASMC IC50 (nM), inhibition of proliferation
Description: as §1, §2, §3, §4

[4] = system: phospho-Rb (Ser807/811); assay: In-cell western analysis of Rb phosphorylation in human PASMCs; format: cell-based; settings: Homo sapiens, PASMC; 10% FBS; N = 6; FIG. 2c; read-out: Average IC50 (nM), inhibition of phosphorylation of Rb in hPASMCs
Description: In-cell western analysis. Primary PASMCs from normal human subjects were cultured and serum-starved as described above. Cells were first pre-incubated with different concentrations of palbociclib for 60 minutes, and then either 5% FBS or 10% FBS or 30 ng/ml PDGF-BB was added to stimulate cell proliferation and Rb phosphorylation. The effect of Palbociclib on Rb phosphorylation was evaluated 24 h later, using in-cell western assay according to the manufacturer's instructions (Li-Cor Biosciences, Lincoln, Nebr., USA). Phosphorylated Rb was measured using a rabbit monoclonal antibody anti-phospho-Rb (Ser807/811) (Cell Signaling Technology, Inc., Danvers, Mass., USA), followed by detection with IRDye 800CW infrared fluorescent dye-labeled goat anti-rabbit secondary antibody. Actin levels were measured using mouse anti-actin monoclonal antibodies (pan Ab-5) (Fisher Scientific Pittsburgh, Pa., USA; Sigma Aldrich, St. Louis, Mo., USA), and followed by detection with IRDye 680RD-labeled goat anti-mouse secondary antibody. See FIG. 2a where 5% FBS was used, FIG. 2b where PDGF-BB was used, and FIG. 2c where 10% FBS was used.

[5] = system: rat Su5416/Hx PAH model; assay: Rat SuHx (Su5416/hypoxia)-induced PAH model (hemodynamics, histomorphometry, IHC); format: in vivo; settings: for lung weight vs vehicle/Su5416/Hx group / vessel-associated Ki67+ cells in the pulmonary vasculature (IHC) / vessel-associated pRb+ cells in the pulmonary vasculature (IHC): days 7 to 28; for MPAP: days 7 to 28, FIG. 4b; for Fulton Index: days 7 to 28, FIG. 4c; for muscularized intra-acinar vessel density relative to vehicle/Su5416/Hx group: days 7 to 28, FIG. 4e; for DPAP: days 7 to 28, FIG. 4i; for heart weight vs vehicle/Su5416/Hx group: days 7 to 28, FIG. 4j; for average vessel wall thickness, intra-acinar and pre-acinar vessels: days 7 to 28, FIG. 4d
Description: SuHx-induced Pulmonary Arterial Hypertension: Sprague-Dawley rats were obtained from Charles River Laboratories (200-300 g; vehicle control, n=5; all other groups, n=10). Rats received Semaxinib dissolved in DMSO on day 0, followed by housing in low (13%) oxygen until day 28. Sildenafil (30 mg/kg/dose; BID), Riociguat (10 mg/kg, QD) or Palbociclib (100 mg/kg; QD) was administered in vehicle (0.5% methylcellulose) from days 7-28. Terminal hemodynamic evaluations and necropsy were conducted on day 28 in a manner similar to the MCT study.
Hemodynamic measurements Su/Hx study: On day 28, animals were anesthetized via intramuscular injection of ketamine/xylazine (80/10 mg/kg). A Millar catheter was inserted into the pulmonary artery and pulmonary pressure and hemodynamics were measured as described by Stringer et al., (1981) Catheterization of the pulmonary artery in the closed-chest rat. J. Appl. Physiol. 51, 1047-1050. Hemodynamic values were calculated using the NOTOCORD-Hem software (NOTOCORD, Inc., Croissy sur Sienne, France) (CorDynamics).
(§5) Measurement of RV hypertrophy. After collection of the heart at necropsy, the atria and great vessels were removed. The RV was separated from the LV and S. The wet weights of the RV and LV+S were measured to calculate the Fulton Index.
(§6) Tissue preparation. Under anesthesia, the animals were exsanguinated, and the pulmonary circulation flushed with oxygenated (animals from Example 3 [MCT]) or heparizined (animals from Example 4 [Su5416/Hx]) saline. Trachea, lungs, and heart were removed intact from thoracic cavity and placed in ice-cold saline. Right lung lobes were removed, weighed, and immediately flash frozen in liquid nitrogen. A 10 mL syringe filled with fixative (10% NBF) with attached blunt tip needle (20 g) was used to inflate the left lung lobe and the airway was tied off to keep it consistently expanded. The left lung was then immersion fixed in 10% NBF for 48 hrs and then transferred to 70% EtOH for ≤5 days.
(§7) Histomorphometric analysis. Three, 3-5 μm thick, transverse sections of the left lung lobe were used for histomorphometric analysis. Overall disease severity scores were determined by light microscopic evaluation of hematoxylin and eosin (H&E)-stained lung sections by a board-certified veterinary pathologist. Scores ranged from 0 (absent), 1 (minimal), 2 (mild), 3 (moderate), 4 (marked) to 5 (severe) and were assigned according to the approximate percentage of the tissue affected by the tissue changes (inflammatory, degenerative, vascular and/or proliferative) characteristic of the PAH model. Average vessel wall thickness was evaluated using lung sections prepared with a modified Verhoeff-van Gieson elastin stain. Image analysis was performed using random field sampling (Visiopharm newCAST) of 10% of tissue area with observer-assisted identification of intra-acinar and pre-acinar vessels and application of a nucleator probe to measure vessel wall thickness. Fully muscularized intra-acinar vessel density was evaluated in a similar manner using dual αSMA/Ki67 IHC-stained sections and observer-assisted counting of ≥70% muscularized (i.e. SMA^+), transversely sectioned, ≤50 μm external diameter, intra-acinar vessels with an identifiable lumen. Vessel-associated Ki67^+ and pRb^+ cells were counted in αSMA/Ki67 IHC-and CD31/pRb IHC-stained lung sections, respectively, using random field sampling of 10% of tissue area and observer-assisted identification of Ki67^+ or pRb^+ cells associated with the walls (i.e. in the intima or media) of vessels 100 μm external diameter.
Immunohistochemistry. Dual α-SMA/Ki67 nuclear antigen: All IHC steps were performed on 3 μm-thick, formalin-fixed, paraffin-embedded (FFPE) sections on Leica Bond Rx automated immunohistochemistry stainer. The instrument was programmed to bake and dewax the slides. […]

[6] = system: Rat MCT-induced PAH Model; assay: Rat MCT-induced PAH model (hemodynamics, histomorphometry, IHC); format: in vivo
Description: Rat MCT-induced PAH Model: Male Sprague-Dawley rats (Charles River Laboratories) (260-280 g; vehicle control group, n=6; all other groups, n=15) received MCT (50 mg/kg, SC; 1 ml/kg BVV) dissolved in vehicle (33.3% 1 N HCl, 14.8% 1 N NaOH, 52.2% diH2O) or vehicle alone on day 0. Sildenafil (50 mg/kg/dose; BID) was administered (5 ml/kg, PO) either prophylactically from days 0-28 or therapeutically from days 14-28. Palbociclib (100 mg/kg; QD) was administered therapeutically (days 14-28). Both sildenafil and palbociclib were resuspended in vehicle (0.5% methylcellulose) and administered orally (5 ml/kg). On day 28, animals were anesthetized via isoflurane, hemodynamic parameters were evaluated, and tissues harvested after euthanasia.
Hemodynamic measurements—monocrotaline (MCT) study: On day 28, animals were anesthetized via 2% isofluorane in positive pressure ventilator. Pulmonary hemodynamics were measured using a pre-calibrated pressure transducer in isoflurane positive-pressure ventilated animals. Steady-state pulmonary and systemic arterial pressures were measured using a Millar Solid State Mikro-tip catheter (Millar Instruments, Houston, Tex.) introduced to the pulmonary arterial trunk at the level of the aortic arch via the right carodid artery. Hemodynamic values were automatically calculated by the physiological data acquisition system, ADI Chart (ADI Instruments, Colorado Springs, Colo.) (Plato BioPharma).
as §5, §6, §7
Immunohistochemistry. […]

[7] = day 0-28, score scale 0-5, FIG. 3g

Compound	IC50 [1] [nM]	IC50 [2] [nM]	IC50 [3] [nM]	IC50 [4] [nM]	lung weight vs vehicle/Su5416/Hx group [5]	vessel-associated Ki67+ cells in the pulmonary vasculature (IHC) [5]	vessel-associated pRb+ cells in the pulmonary vasculature (IHC) [5]	MPAP [5]	Fulton Index [5]	muscularized intra-acinar vessel density relative to vehicle/Su5416/Hx group [5]	DPAP [5]	heart weight vs vehicle/Su5416/Hx group [5]	average vessel wall thickness, intra-acinar and pre-acinar vessels [5]	other results
CCN1CCN(Cc2ccc(Nc3ncc(F)c(-c4cc(F)c5nc(C)n(C(C)C)c5c4)n3)nc2)CC1 [Abemaciclib, 2-pyrimidinamine, N-(5-((4-ethyl-1-piperazinyl)methyl)-2-pyridinyl)-5-fluoro-4-(4-fluoro-2-methyl-1-(1-methylethyl)-1H-benzimidazol-6-yl)]	6.5	1.2	13	262	–	–	–	–	–	–	–	–	–	–
CN(C)C(=O)c1cc2cnc(Nc3ccc(N4CCNCC4)cn3)nc2n1C1CCCC1 [Ribociclib, 7-cyclopentyl-N, N-dimethyl-2-((5-(piperazin-1-yl)pyridin-2-yl)amino)-7H-pyrrolo[2,3-d]pyrimidine-6-carboxamide]	0.5	0.8	28.6	352	–	–	–	–	–	–	–	–	–	–
COC(=O)N(C)c1c(N)nc(-c2nn(Cc3ccccc3F)c3ncccc23)nc1N [Riociguat]	–	–	–	–	no change	no significant beneficial effect	no significant beneficial effect	significantly reduced	only a slight reduction	not statistically significantly different	significantly reduced	no change	not	–
CCCc1nn(C)c2c(=O)[nH]c(-c3cc(S(=O)(=O)N4CCN(C)CC4)ccc3OCC)nc12 [Sildenafil]	–	–	–	–	no change	no significant beneficial effect	no significant beneficial effect	significantly reduced	only a slight reduction	not statistically significantly different	significantly reduced	no change	not	density of fully muscularized intra-acinar vessels (αSMA staining) ([6]; day 0-28, FIG. 3e): effective; average vessel wall thickness relative to vehicle/MCT group ([6]; day 0-28, FIG. 3d): 0.76 x MCT; disease severity scores, mean [6, 7]: 2.5; disease severity scores, range [6, 7]: 1-4; average vessel wall thickness (elastin staining), intra-acinar and pre-acinar pulmonary arteries, relative to vehicle/MCT group ([6]; day 14-28, FIG. 3d): little effect; PAH-related increase in MPAP ([6]; dosed prophylactically day 0-28, sildenafil 50 mg/kg/dose PO BID, FIG. 3b): significantly reduced; PAH-related increase in Fulton Index ([6]; prophylactic day 0-28, FIG. 3c): significantly reduced; PAH-related increase in DPAP ([6]; prophylactic day 0-28, FIG. 3i): significantly reduced; PAH-related increase in heart weight ([6]; prophylactic day 0-28, FIG. 3j): significantly reduced; PAH-related increase in SPAP ([6]; prophylactic day 0-28, FIG. 3h): significantly reduced; DPAP ([6]; therapeutic day 14-28): small and non-significant reduction; Fulton Index ([6]; therapeutic day 14-28): small and non-significant reduction; MPAP ([6]; therapeutic day 14-28): small and non-significant reduction; SPAP ([6]; therapeutic day 14-28): small and non-significant reduction; heart weight ([6]; therapeutic day 14-28): small and non-significant reduction; SPAP ([5]; days 7 to 28, FIG. 4h): significantly reduced

— patent US11439646B2, “Anti-proliferative agents for treating PAH” (Pfizer Inc., priority 2016, dated 2022)
